In article PMC7466040, “Sevanol and Its Analogues: Chemical Synthesis, Biological Effects and Molecular Docking” (Pharmaceuticals, 2020):

Legend:
mice = test system: mice; set-up: method as in PMID 30545037; details: parenteral, 0.01–10 mg/kg; cited from earlier work
ASIC1a = target: T1, ASIC1a (Rattus norvegicus, UniProt P55926); experiment: Competition of sevanol with FRRFa peptide on ASIC1a current (integral currents); type: cell-based
T1 construct: expressed in transfected cells; host or cells: Xenopus laevis oocytes (cRNA injection)
T1 sequence (P55926 1-526): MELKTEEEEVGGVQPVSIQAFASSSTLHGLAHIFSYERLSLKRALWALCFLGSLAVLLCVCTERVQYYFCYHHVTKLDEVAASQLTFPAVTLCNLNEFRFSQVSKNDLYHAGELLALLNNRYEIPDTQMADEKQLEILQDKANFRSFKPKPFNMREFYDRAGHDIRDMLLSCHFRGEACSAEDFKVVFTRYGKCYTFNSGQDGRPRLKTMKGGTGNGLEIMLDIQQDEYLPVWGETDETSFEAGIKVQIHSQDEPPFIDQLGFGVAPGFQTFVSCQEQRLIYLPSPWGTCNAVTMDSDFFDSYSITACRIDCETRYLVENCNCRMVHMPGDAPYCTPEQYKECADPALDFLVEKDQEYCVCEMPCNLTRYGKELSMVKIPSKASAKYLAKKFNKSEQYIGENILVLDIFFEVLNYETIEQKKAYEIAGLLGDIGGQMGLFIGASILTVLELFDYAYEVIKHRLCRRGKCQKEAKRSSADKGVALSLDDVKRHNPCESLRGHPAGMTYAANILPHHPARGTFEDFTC
From the text: It is known that RF-amide peptides produce a potentiating effect on ASIC1a by inhibiting the channel’s desensitization in the presence of protons (during acidic stimulation). […] Using molecular docking and site-directed mutagenesis, it has been shown that RF-amide peptides are most likely to bind to ASIC1a in the central vestibule of the chicken channel. […] The peptide worsened the effectiveness of the inhibitory action of sevanol on the channel by 1.5 times, and reduced the Hill coefficient (Figure 3). Thus, it can be assumed that the binding site of sevanol also lies in the region of the central vestibule.
(§1) Oocytes were harvested from female frogs anaesthetized with tricaine methane sulfonate (MS222) (0.17% solution), and the surgery was performed in an ice bath to avoid heavy bleeding. Defolliculated stage IV and V cells were injected with 2.5 and 10 ng cRNA, synthesized from PCi plasmids containing the rat ASIC1a and rat ASIC3 isoforms, respectively, using the Nanoliter 2000 microinjection system (World Precision Instruments, USA). The injected oocytes were kept for 2–3 days at 17 to 19 °C, and then for up to 5 days at 15 °C in a ND96 medium containing (in mM) 96 NaCl, 2 KCl, 1.8 CaCl2, 1 MgCl2, and 5 HEPES titrated to pH 7.4 with NaOH supplemented with gentamycin (50 μg/mL). Two-electrode voltage clamp recordings were performed at a holding potential of −50 mV using a GeneClamp 500 amplifier (Axon Instruments), and the data were filtered at 20 Hz and digitized at 100 Hz by an AD converter L780 (LCard, Russia). Microelectrodes were filled with 3 M KCl. The conditioning bath solution was ND96; the pH was adjusted to 7.4. The activating test solution was constructed based on the ND-96 buffer, in which 5 mM HEPES was replaced with 10 mM MES and pH was adjusted to 5.5. A computer-controlled valve system was used to achieve a rapid solution exchange in the recording chamber. A four parameter logistic equation was used for the curve-fitting analysis: F(x) = ((a1 − a2)/(1 + (x/x0)n)) + a2, where x is the concentration of the compound; F(x) is the response value at a given concentration of the compound; a1 is the control response value (fixed at 100%); x0 is the IC50 value; n is the Hill coefficient (slope factor); and a2 is the response value at the maximal inhibition (% of control).
Figure 3 Comparison of sevanol (s706) and the Phe-Arg-Arg-Phe-amide peptide (FRRFa) effects on the ASIC1a current. […] (B) Dose–response ASIC1a inhibitory curves for s706 alone (red line) and for s706 in the presence of 200 µM FRRFa (blue line), determined for integral currents. […]

rat ASIC1a = target: T2, rat ASIC1a (Rattus norvegicus, UniProt P55926); experiment: Two-electrode voltage clamp on X. laevis oocytes expressing rat ASIC1a; type: cell-based
T2 construct: expressed in transfected cells; host or cells: Xenopus laevis oocytes (cRNA injection)
T2 sequence (P55926 1-526): T1 sequence (P55926 1-526)
Experimental: Testing the activity of synthetic sevanol (s706) (as a mixture of 75% of sevanol and 25% of isosevanol) and its analogues (s590, EA, and s788) was carried out by the standard two-electrode voltage clamp method on X. laevis oocytes expressing rat ASIC1a and ASIC3 channels. The activation of the channels was performed using a rapid change of the solution from conditioning pH 7.4 to a solution with pH 5.5. Sevanol and its two analogues, s590 and EA, inhibited ASIC1a and ASIC3 channels.
as §1
Figure 2 The inhibitory activity of sevanol (s706) and its analogues. Currents were elicited by a drop from pH 7.4 to 5.5; the holding potential was −50 mV; (A,C) are dose–response curves for s706, s590 and EA inhibitory effects on ASIC1a and ASIC3 channels, respectively; (B,D) are reciprocal IC50 values for s706, s590 and EA inhibitory effects on ASIC1a and ASIC3 channels, respectively. The data were fitted by the logistic equation. Each point is the mean ± SEM of 5–6 measurements. * p < 0.05, ** p < 0.005.

O=C(O)CC(C(=O)O)C(OC(=O)C1=Cc2cc(O)c(O)cc2C(c2ccc(O)c(O)c2)C1C(=O)OC(C(=O)O)C(CC(=O)O)C(=O)O)C(=O)O (stereo not shown) [sevanol]
effect on acetic acid-induced writhing (mice): reduced the number of writhes
worsening of effectiveness of inhibitory action on ASIC1a by FRRFa peptide (ASIC1a; 200 μM FRRFa vs alone): 1.5 times
IC50 (ASIC1a; integral currents, pH 5.5, 15 s pre-incubation, n = 5, read-out: IC50, ASIC1a inhibition, s706 alone): 254 ± 31.2 µM
nH, ASIC1a inhibition in the presence of FRRFa (ASIC1a; integral currents, pH 5.5, + 0.2 mM (200 µM) FRRFa, n = 5): 2.4 ± 0.3
nH, ASIC1a inhibition, s706 alone (ASIC1a; integral currents, pH 5.5, n = 5): 3.1 ± 0.4
IC50 (rat ASIC1a; X. laevis oocytes, pH drop 7.4 to 5.5, holding potential −50 mV, mean ± SEM of 5–6, read-out: IC50, inhibition of ASIC1a current): 228 ± 37.4 µM
maximal current block, ASIC1a (rat ASIC1a; pH 7.4 to 5.5, effect reversible): 100%
